Laboratory results taken from patent US20230126447A1, “OCULAR DRUG DEPOT FOR COMPLEMENT-MEDIATED DISORDERS” (priority 2020, published 2023).

Legend:
[1] = QWBA tissue distribution of [14C] Compound 1, albino Wistar Han rats (PO); type: in vivo; details: albino male WH rats, 20 mg/kg PO
Experimental: This study was conducted to determine the tissue distribution of drug-related radioactivity following a single oral (PO) (20 mg/kg) or intravenous (IV) (5 mg/kg) administration of [^14C]
Ten adult male pigmented Long-Evans (LE) rats (Group 1), 1 adult male LE rat (Group 2), and 3 albino Wistar Han (WH) rats (Group 3) received a single oral 20 mg/kg (Groups 1 and 3) or IV 5 mg/kg (Group 2) dose of [^14C] […] The formulation was prepared at a target dose of 5 mg (IV) or 20 mg (PO) […]
The carcasses were frozen in hexane dry-ice and stored at or below −20° C. prior to processing for QWBA. Each carcass was embedded, cut into sagittal sections, and mounted for QWBA. […] The lower limit of quantitation was 0.105 μg equiv/g.

[2] = Ocular tissue and plasma pharmacokinetics, 50 mg/kg BID oral, Dutch Belted rabbits (Example 4/5); type: in vivo; details: DB rabbit; for Mean Choroid-RPE concentration / Mean Iris-Ciliary Body concentration / Mean plasma concentration / Mean retina concentration / Optic Nerve concentration / Vitreous concentration: 50 mg/kg BID oral; for Mean Choroid-RPE concentration / Mean Iris-Ciliary Body concentration / Mean plasma concentration / Mean retina concentration: 50 mg/kg
Experimental: Study design, including group designation and dose levels, are outlined in Table 15. […] Two Dutch Belted rabbits received vehicle only oral gavage doses for tolerability assessment. […] The dose volume was 5 mL/kg/dose for all groups. Safety was assessed with toxicological and ophthalmic examinations, including slit lamp biomicroscopy, indirect ophthalmoscopy, rebound tonometry, and ultrasonic corneal pachymetry.
For the pharmacokinetic determination, a single blood sample was taken from each rabbit from Groups 1 and 4 at one hour post-dose on Day 15, Group 2 at one hour post-dose on Day 8, and Group 3 at pre-dose, 1, 6, 24, 96, 168, and 240 hours post-dose on Day 15, with the eyes collected at the same time as blood sampling. Plasma, vitreous humor (VH), retina, choroid-retina pigmented epithelium (Choroid-RPE), optic nerve (ON), and iris-ciliary body (I-CB) were analyzed by LC-MS/MS to quantify test article concentrations. The lower limit of quantitation (LLOQ) in plasma and vitreous humor was 1.0 ng/mL. The LLOQ was 6.0 ng/g in retina, choroid-RPE, and I-CB and the optic nerve LLOQ was 15 ng/g, assuming tissue density of 1 g/mL where relevant. […]

[3] = Choroid-RPE, 50 mg/kg BID, Day 15
[4] = Iris-Ciliary Body, 50 mg/kg BID, Day 15
[5] = Optic Nerve, 50 mg/kg BID, Day 15
[6] = Vitreous Humor, 50 mg/kg BID, Day 15
[7] = male, Dutch Belted, po, Choroid-RPE, 50 mg/kg BID, Day 15
[8] = male, Dutch Belted, po, Iris-Ciliary Body, 50 mg/kg BID, Day 15

CC(=O)c1nn(CC(=O)N2C[C@H](F)C[C@H]2C(=O)Nc2cccc(Br)n2)c2ccc(-c3cnc(C)nc3)cc12 [Compound 1, (2S,4R)-1-(2-(3-Acetyl-5-(2-methylpyrimidin-5-yl)-1H-indazol-1-yl)acetyl)-N-(6-bromopyridin-2-yl)-4-fluoropyrrolidine-2-carboxamide]
Concentration of radioactivity at Tmax, non-pigmented skin [1]: 2.98 μg equiv/g | Concentration of radioactivity at Tmax, uvea of the non-pigmented eye [1]: 1.68 μg equiv/g | Highest concentration of radioactivity in blood ([1]; 1 h post-dose): 2.77 μg equiv/g | Concentration of radioactivity, uvea of the non-pigmented eye ([1]; 24 h): BQL | Concentration of radioactivity, non-pigmented skin ([1]; 168 h): BQL | AUC(0-t) [2, 3]: 274000 ng·h/g | AUC(0-∞) [2, 3]: 292000 ng·h/g | Tlast [2, 3]: 240 h | Optic nerve concentration after 24 hours post-dose (non-detectable) ([2]; 50 mg/kg BID for 14 days): < 1.0 ng/mL | Plasma concentration after 24 hours post-dose (non-detectable) ([2]; 50 mg/kg BID for 14 days): < 1.0 ng/mL | Vitreous humor concentration after 24 hours post-dose (non-detectable) ([2]; 50 mg/kg BID for 14 days): < 1.0 ng/mL | Mean Choroid-RPE concentration ([2]; Day 15, 0 h): 3918 ± 950 ng/g | Mean Iris-Ciliary Body concentration ([2]; Day 15, 0 h): 5076 ± 586 ng/g | Mean plasma concentration ([2]; Day 15, 0 h): 104 ± 68 ng/mL | Mean retina concentration ([2]; Day 15, 0 h): 159 ± 87.9 ng/g | Mean Choroid-RPE concentration ([2]; Day 15, 1 h): 8025 ± 2350 ng/g | Mean Iris-Ciliary Body concentration ([2]; Day 15, 1 h): 11475 ± 2022 ng/g | Mean plasma concentration ([2]; Day 15, 1 h): 2895 ± 884 ng/mL | Mean retina concentration ([2]; Day 15, 1 h): 2122 ± 376 ng/g | Mean Choroid-RPE concentration ([2]; Day 15, 6 h): 4373 ± 1586 ng/g | Mean Iris-Ciliary Body concentration ([2]; Day 15, 6 h): 8822 ± 2621 ng/g | Mean plasma concentration ([2]; Day 15, 6 h): 321 ± 70.0 ng/mL | Mean retina concentration ([2]; Day 15, 6 h): 725 ± 117 ng/g | Mean Choroid-RPE concentration ([2]; Day 15, 24 h): 2097 ± 273 ng/g | Mean Iris-Ciliary Body concentration ([2]; Day 15, 24 h): 5556 ± 2128 ng/g | Mean plasma concentration ([2]; Day 15, 24 h): 39.9 ± 4.45 ng/mL | Mean retina concentration ([2]; Day 15, 24 h): 265 ± 113 ng/g | Optic Nerve concentration ([2]; Day 15, 96 h): BLQ^b | Vitreous concentration ([2]; Day 15, 96 h): BLQ^c | Mean Choroid-RPE concentration ([2]; Day 15, 96 h): 873 ± 392 ng/g | Mean Iris-Ciliary Body concentration ([2]; Day 15, 96 h): 2837 ± 1136 ng/g | Mean plasma concentration ([2]; Day 15, 96 h): BLQ^a and BLQ | Mean retina concentration ([2]; Day 15, 96 h): 32.3 ± 24.2 ng/g | Optic Nerve concentration ([2]; Day 15, 168 h): BLQ^b | Vitreous concentration ([2]; Day 15, 168 h): BLQ^c | Mean Choroid-RPE concentration ([2]; Day 15, 168 h): 645 ± 67.2 ng/g | Mean Iris-Ciliary Body concentration ([2]; Day 15, 168 h): 2292 ± 445 ng/g | Mean plasma concentration ([2]; Day 15, 168 h): BLQ^a and BLQ | Mean retina concentration ([2]; Day 15, 168 h): 54.9 ± 7.28 ng/g | Optic Nerve concentration ([2]; Day 15, 240 h): BLQ^b | Vitreous concentration ([2]; Day 15, 240 h): BLQ^c | Mean Choroid-RPE concentration ([2]; Day 15, 240 h): 195 ± 41.5 ng/g | Mean Iris-Ciliary Body concentration ([2]; Day 15, 240 h): 1624 ± 1275 ng/g | Mean plasma concentration ([2]; Day 15, 240 h): BLQ^a and BLQ | Mean retina concentration ([2]; Day 15, 240 h): 39.4 ± 20.1 ng/g | AUC(0-t) [2, 4]: 801000 ng·h/g | AUC(0-∞) [2, 4]: 1220000 ng·h/g | Tlast [2, 4]: 240 h | AUC(0-t) [2, 5]: 4880 ng·h/g | AUC(0-∞) [2, 5]: 5180 ng·h/g | AUC(0-t) ([2]; Retina, 50 mg/kg BID, Day 15): 30300 ng·h/g | AUC(0-∞) ([2]; Retina, 50 mg/kg BID, Day 15): 35700 ng·h/g | Tlast ([2]; Retina, 50 mg/kg BID, Day 15): 240 h | AUC(0-t) [2, 6]: 419 ng·h/g | AUC(0-∞) [2, 6]: 442 ng·h/g | Tlast [2, 6]: 24 h | Cmax [2, 7]: 8020 ng/g | MRT last [2, 7]: 68.6 h | Tmax [2, 7]: 1 h | half-life [2, 7]: 66.4 h | Cmax [2, 8]: 11500 ng/g | MRT inf [2, 8]: 138 h | MRT last [2, 8]: 88 h
